US10815199B2, “NMDA antagonist prodrugs” (priority 2013, dated 2020)
Structures can show the parent of a compound that is named as a salt. Where two headings read alike, the source gives them in different places.

Key:
[1] = Hum Liver Assay (human liver S9 fraction); type: in vitro ADME
Text: This example illustrates that different prodrugs of (S)-1-phenyl-2-(pyridin-2-yl)ethanamine, wherein R1 is C1-6 alkylC(O)O(C1-6 alkoxy), may be used to achieve differing rates of conversion (i.e., slow or rapid) to (S)-1-phenyl-2-(pyridin-2-yl)ethanamine to ascertain a suitable PK profile. […] Further, this Example illustrates that there is no expected loss in oral exposure when a prodrug is converted to free base. Conversion of a prodrug wherein R1 is C1-6 alkylC(O)O(C1-6 alkoxy) to (S)-1-phenyl-2-(pyridin-2-yl)ethanamine is expected to occur via an initial enzymatic hydrolysis of a functional group, such as an ester, followed by a spontaneous conversion to (S)-1-phenyl-2-(pyridin-2-yl)ethanamine. Enzymes involved are expected to be several non-specific, high capacity esterases, which can be shown by inhibiting the conversion with a non-selective esterase inhibitor but not inhibiting the conversion using selective inhibitors. Such esterases are expected to be distributed throughout the human body. Human Intestinal Fluid (HIF), human liver S9 fraction and human whole blood have been used to examine the pharmacokinetic properties of the prodrugs of (S)-1-phenyl-2-(pyridin-2-yl)ethanamine as well as the formation rate and formation extent of the (S)-1-phenyl-2-(pyridin-2-yl)ethanamine in different bodily compartments. The formation rate of (S)-1-phenyl-2-(pyridin-2-yl)ethanamine from different prodrugs of (S)-1-phenyl-2-(pyridin-2-yl)ethanamine differs markedly in all tested assays, as shown in Table 1.
Human Intestinal Fluids (HIF), Human Liver and Human Blood assays used to generate the results shown in Table 1 have been described in Malmborg J & Ploeger B A, J Pharmacol Toxicol Methods (2013) May-June 67(3) 203-13, which is incorporated by reference herein.
(§1) [drawing 48] is expected to occur via enzymatic hydrolysis at the proline C-terminus, releasing a dipeptide and (S)-1-phenyl-2-(pyridin-2-yl)ethanamine. The enzyme involved is expected to be dipeptidyl peptidase IV (DPPIV), which can be shown by inhibiting the conversion with a selective inhibitor of this enzyme. DPPIV is expected to be distributed throughout the human body. Human Intestinal Fluid (HIF), human liver S9 fraction and human whole blood have been used to examine the pharmacokinetic properties of prodrugs of (S)-1-phenyl-2-(pyridin-2-yl)ethanamine as well as the formation rate and formation extent of the (S)-1-phenyl-2-(pyridin-2-yl)ethanamine in different bodily compartments. Caco-2 cells have been used to evaluate the permeability and absorption potential of the prodrugs of (S)-1-phenyl-2-(pyridin-2-yl)ethanamine. The formation rate of (S)-1-phenyl-2-(pyridin-2-yl)ethanamine from different prodrugs of (S)-1-phenyl-2-(pyridin-2-yl)ethanamine differed in the tested assays, especially in human blood, as shown in Table 2.

Seizures in dog = Seizures in dog (NOEL/LOEL) after oral gavage; type: in vivo; conditions: for LOEL Seizures in dog (Dose administered) / NOEL Seizures in dog (Dose administered): oral gavage, dose reflects free base concentration
Protocol: This example illustrates that when doses of prodrug of (S)-1-phenyl-2-(pyridin-2-yl)ethanamine dihydrochloride (Example 5) and (S)-1-phenyl-2-(pyridin-2-yl)ethanamine dihydrochloride were administered to dogs, the risk of seizures, as represented by NOEL and LOEL, was less with the prodrug.
(S)-1-phenyl-2-(pyridin-2-yl)ethanamine dihydrochloride and vehicle were administered once per day via oral gavage (water). Formulations were prepared twice, once weekly. Dosing formulations were stored and refrigerated (2-8° C.) in amber glass containers until required for dosing. A range of concentrations of (S)-1-phenyl-2-(pyridin-2-yl)ethanamine dihydrochloride in vehicle were prepared in order to keep the dose volume for all doses (1 mL/kg). Individual doses were based on the most recent body weights of dogs used in the study.
A prodrug of (S)-1-phenyl-2-(pyridin-2-yl)ethanamine as fumarate salt (example 5) and vehicle were administered once per day for 14 days via oral gavage at approximately the same time each day (±1 hour), (vehicle is 0.3 M gluconic acid pH 3.0). A range of concentrations of prodrug of (S)-1-phenyl-2-(pyridin-2-yl)ethanamine as fumarate salt in vehicle were prepared (for example 3, 10 and 30 mg/mL of prodrug of (S)-1-phenyl-2-(pyridin-2-yl)ethanamine) in order to keep the dose volume for all doses (2 mL/kg). The dosing formulations were warmed to room temperature by stirring for at least 30 minutes prior to dosing and continuously throughout the administration procedure. Individual doses were based on the most recent body weights of dogs used in the study.
Table 4 Compound 1 is (S)-1-phenyl-2-(pyridin-2-yl)ethanamine. […] In each case the highest blood concentration (Cmax) of free base (S)-1-phenyl-2-(pyridin-2-yl)ethanamine is measured. In the first case, the free base (S)-1-phenyl-2-(pyridin-2-yl)ethanamine is generated directly from Compound 1, administered as the dihydrochloride salt. In the second case, the free base (S)-1-phenyl-2-(pyridin-2-yl)ethanamine is generated via in vivo conversion from a prodrug of Compound 1, administered as the fumarate salt. The NOEL for seizures was higher when the prodrug of (S)-1-phenyl-2-(pyridin-2-yl)ethanamine as fumarate salt was administered compared to when (S)-1-phenyl-2-(pyridin-2-yl)ethanamine as dihydrochloride salt was administered.

Caco-2 permeability = type: in vitro ADME; conditions: human; Caco-2 cells
Text: as §1

[2] = Conversion of prodrug at increasing initial concentrations in human intestinal fluid (LC-UV); type: in vitro ADME; conditions: initial concentrations 33, 100, 300 and 600 μmol/L, FIG. 1a and 1b
Protocol: FIGS. 1a and 1b illustrates the conversion of prodrug of (S)-1-phenyl-2-(pyridin-2-yl)ethanamine (Example 5) to (S)-1-phenyl-2-(pyridin-2-yl)ethanamine during an incubation period in human intestinal fluid. In particular, FIG. 1a illustrates prodrug of (S)-1-phenyl-2-(pyridin-2-yl)ethanamine (Example 5) concentration (initial concentrations of 30, 100, 300 and 600 as it transforms to (S)-1-phenyl-2-(pyridin-2-yl)ethanamine, during an incubation period in human intestinal fluid. FIG. 1b illustrates (S)-1-phenyl-2-(pyridin-2-yl)ethanamine concentration, as it converts from prodrug of (S)-1-phenyl-2-(pyridin-2-yl)ethanamine (Example 5, initial concentrations of 30, 100, 300 and 600 μM), during an incubation period in human intestinal fluid. […]
Stock solutions of prodrug of (S)-1-phenyl-2-(pyridin-2-yl)ethanamine (0.33, 1, 3 and 6 mmol/L) were prepared by adding a volume (8.25, 25, 75 and 150 μL) of 20 mmol/L solution of prodrug of (S)-1-phenyl-2-(pyridin-2-yl)ethanamine dissolved in DMSO, to FaSSIF-v2 (491.75, 475, 425 and 350 μL). […] The conversion rate from prodrug to (S)-1-phenyl-2-(pyridin-2-yl)ethanamine was determined by fitting the measured prodrug and (S)-1-phenyl-2-(pyridin-2-yl)ethanamine concentrations versus time.

[3] = human, s9, Table 1, read-out: Prodrug Clint Hum Liver S9
[4] = human, s9, Table 2, read-out: Prodrug Clint Hum Liver S9

Row | SMILES | microsomal CLint [1, 3] | Papp (Caco-2 permeability) | microsomal CLint [1, 4] | also measured
1 | CC(C)C(=O)OC(OC(=O)N[C@@H](Cc1ccccn1)c1ccccc1)C(C)C (single isomer, unassigned) [Example 2 Diastereomer 2] | 1900 µL/min/mg |  |  | 
2 | CC(OC(=O)N[C@@H](Cc1ccccn1)c1ccccc1)OC(=O)C(C)C (single isomer, unassigned) [Example 4 Diastereomer 1] | 1200 µL/min/mg |  |  | 
3 | Cl.Cl.N[C@@H](Cc1ccccn1)c1ccccc1 [Compound 1, as di-HCl salt, (S)-1-phenyl-2-(pyridin-2-yl)ethanamine dihydrochloride, reference compound] |  |  |  | LOEL Seizures in dog (Dose administered) (Seizures in dog): (20 mg/kg); NOEL Seizures in dog (Dose administered) (Seizures in dog): (10 mg/kg)
4 | CC(C)C(=O)OCOC(=O)N[C@@H](Cc1ccccn1)c1ccccc1 [Example 1, (S)-(1-Phenyl-2-(pyridin-2-yl)ethylcarbamoyloxy)methyl isobutyrate] | 2300 µL/min/mg |  |  | 
5 | CC(C)[C@H](N)C(=O)N1CCC[C@H]1C(=O)N[C@@H](Cc1ccccn1)c1ccccc1 [Example 5, (S)-1-((S)-2-Amino-3-methylbutanoyl)-N—((S)-1-phenyl-2-(pyridin-2-yl)ethyl)pyrrolidine-2-carboxamide] |  | 1.4 ×10⁻⁶ cm/s | 120 µL/min/mg | risk of seizures, as represented by NOEL and LOEL (Seizures in dog; dogs, prodrug versus (S)-1-phenyl-2-(pyridin-2-yl)ethanamine dihydrochloride): less; increase in concentration of (S)-1-phenyl-2-(pyridin-2-yl)ethanamine with increasing doses of prodrug [2]: less than proportional increases
6 | NCCCC[C@H](N)C(=O)N1CCC[C@H]1C(=O)N[C@@H](Cc1ccccn1)c1ccccc1 [Example 6, (S)-1-((S)-2,6-Diaminohexanoyl)-N—((S)-1-phenyl-2-(pyridin-2-yl)ethyl)pyrrolidine-2-carboxamide] |  | 0.07 ×10⁻⁶ cm/s | 73 µL/min/mg | 
7 | N[C@@H](Cc1c[nH]cn1)C(=O)N1CCC[C@H]1C(=O)N[C@@H](Cc1ccccn1)c1ccccc1 [Example 7, (S)-1-((S)-2-Amino-3-(1H-imidazol-4-yl)propanoyl)-N—((S)-1-phenyl-2-(pyridin-2-yl)ethyl)pyrrolidine-2-carboxamide] |  | 1.6 ×10⁻⁶ cm/s | 33 µL/min/mg | 
8 | N[C@@H](Cc1ccc(O)cc1)C(=O)N1CCC[C@H]1C(=O)N[C@@H](Cc1ccccn1)c1ccccc1 [Example 8, 2-((S)-2-((S)-1-((S)-2-Amino-3-(4-hydroxyphenyl)propanoyl)pyrrolidine-2-carboxamido)-2-phenylethyl)pyridine dihydrochloride] |  | 3.2 ×10⁻⁶ cm/s |  | microsomal CLint ([1]; Table 2, read-out: Prodrug Clint Hum Liver S9): 51 µL/min/mg
9 | N=C(N)NCCC[C@H](N)C(=O)N1CCC[C@H]1C(=O)N[C@@H](Cc1ccccn1)c1ccccc1 [Example 12, 2-[(2S)-2-{[(2S)-1-[(2S)-2-Azaniumyl-5-{[azaniumyl(iminiumyl)methyl]amino}pentanoyl]-pyrrolidin-2-yl]formamido}-2-phenylethyl]pyridin-1-ium tetrachloride] |  | 8.6 ×10⁻⁶ cm/s | 69 µL/min/mg | 
10 | CC(C)[C@H](N)C(=O)N1CCC[C@H]1C(=O)N[C@@H](Cc1ccccn1)c1ccccc1 [Prodrug of Compound 1, as fumarate salt, (S)-1-((S)-2-Amino-3-methylbutanoyl)-N-((S)-1-phenyl-2-(pyridin-2-yl)ethyl)pyrrolidine-2-carboxamide fumerate] |  |  |  | LOEL Seizures in dog (Dose administered) (Seizures in dog): (60 mg/kg); NOEL Seizures in dog (Dose administered) (Seizures in dog): (20 mg/kg)
